Read-outs that look alike come from different tables or passages of the source.
What was measured:
Assay in all cases: Test B pre-/postemergence plant response
Assay type in all cases: in vivo
[1] = system: cocklebur (Xanthium strumarium); details: Xanthium strumarium, read-out: Plant response rating, Cocklebur; for pest or weed control at 31 g/ha: 31 g ai/ha; for pest or weed control at 125 g/ha: 125 g ai/ha
Method in brief: (§1)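 Visually scored on a 0 to 100 scale after 13 to 15 days in greenhouse versus controls. Treatments were preemergence on seeded loam/sand soil and postemergence on 1- to 4-leaf plants.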

[2] = system: velvetleaf (Abutilon theophrasti); details: for pest or weed control at 125 g/ha: 125 g ai/ha
Method in brief: as §1

wild oat (Avena fatua) = details: for pest or weed control at 31 g/ha: 31 g ai/ha; for pest or weed control at 125 g/ha: 125 g ai/ha
Method in brief: as §1

[3] = system: bermudagrass (Cynodon dactylon); details: for pest or weed control at 31 g/ha: 31 g ai/ha; for pest or weed control at 125 g/ha: 125 g ai/ha
Method in brief: as §1

[4] = system: Surinam grass (Brachiaria decumbens); details: for pest or weed control at 125 g/ha: 125 g ai/ha
Method in brief: as §1

[5] = system: lambsquarters (Chenopodium album); details: for pest or weed control at 31 g/ha: 31 g ai/ha; for pest or weed control at 125 g/ha: 125 g ai/ha
Method in brief: as §1

[6] = system: pigweed (Amaranthus retroflexus); details: for pest or weed control at 31 g/ha: 31 g ai/ha; for pest or weed control at 125 g/ha: 125 g ai/ha
Method in brief: as §1

[7] = system: ragweed (common ragweed, Ambrosia elatior); details: for pest or weed control at 125 g/ha: 125 g ai/ha
Method in brief: as §1

soybean (Glycine max) = details: for plant injury at 125 g/ha: 125 g ai/ha
Method in brief: as §1

[8] = 62 g ai/ha, postemergence, 0 is no effect, 100 is complete control, 13 to 15 days
[9] = Preemergence, 250 g ai/ha, 0 to 100 scale

O=C1CCCC(O)=C1C(=O)c1cnc(-c2cccnc2)n(-c2ccccc2)c1=O [Compound 113, 5-[(2-hydroxy-6-oxo-1-cyclohexen-1-yl)carbonyl]-3-phenyl-2-(3-pyridinyl)-4(3H)-pyrimidone]
pest or weed control at 31 g/ha ([1]; post-emergence, postemergence, scale 0 to 100, 0 is no effect, 100 is complete control): 95% | pest or weed control at 125 g/ha ([1]; post-emergence, Postemergence, scale 0 to 100 (0 no effect, 100 complete control)): 98% | pest or weed control at 250 g/ha ([1]; post-emergence, Postemergence, 250 g ai/ha, scale 0 to 100 (0 no effect, 100 complete control)): 98% | pest or weed control at 31 g/ha ([1]; pre-emergence, Preemergence, scale 0 to 100 (0 no effect, 100 complete control)): 45% | pest or weed control at 62 g/ha ([1]; pre-emergence, Preemergence, 62 g ai/ha, scale 0 to 100, 0 no effect, 100 complete control): 75% | pest or weed control at 125 g/ha ([1]; pre-emergence, Preemergence, scale 0 to 100, 0 no effect, 100 complete control): 90% | Velvetleaf plant response rating (0 to 100 scale) [2, 8]: 95 | pest or weed control at 125 g/ha ([2]; Abutilon theophrasti, post-emergence, 360 h, Postemergence, scale 0 to 100 (0 no effect, 100 complete control), read-out: Plant response rating, Velvetleaf): 98% | pest or weed control at 250 g/ha ([2]; Abutilon theophrasti, post-emergence, 360 h, Postemergence, 250 g ai/ha, scale 0 to 100 (0 no effect, 100 complete control), read-out: Plant response rating, Velvetleaf): 98% | pest or weed control at 31 g/ha ([2]; Abutilon theophrasti, pre-emergence, 360 h, Preemergence, 31 g ai/ha, scale 0 to 100 (0 no effect, 100 complete control), read-out: Plant response rating, Velvetleaf): 80% | pest or weed control at 62 g/ha ([2]; Abutilon theophrasti, pre-emergence, 360 h, Preemergence, 62 g ai/ha, scale 0 to 100 (0 no effect, 100 complete control), read-out: Plant response rating, Velvetleaf): 100% | pest or weed control at 125 g/ha ([2]; Abutilon theophrasti, pre-emergence, 360 h, Preemergence, scale 0 to 100, 0 no effect, 100 complete control, read-out: Plant response rating, Velvetleaf): 100% | Velvetleaf plant response rating [2, 9]: 100 | Oat, Wild plant response rating (0 to 100 scale) (wild oat (Avena fatua); [8]): 40 | pest or weed control at 31 g/ha (wild oat (Avena fatua); Avena fatua, post-emergence, postemergence, scale 0 to 100, 0 is no effect, 100 is complete control, read-out: Plant response rating, Oat, Wild): 20% | pest or weed control at 125 g/ha (wild oat (Avena fatua); Avena fatua, post-emergence, Postemergence, scale 0 to 100 (0 no effect, 100 complete control), read-out: Plant response rating, Oat, Wild): 45% | pest or weed control at 250 g/ha (wild oat (Avena fatua); Avena fatua, post-emergence, Postemergence, 250 g ai/ha, scale 0 to 100 (0 no effect, 100 complete control), read-out: Plant response rating, Oat, Wild): 85% | pest or weed control at 31 g/ha (wild oat (Avena fatua); Avena fatua, pre-emergence, Preemergence, scale 0 to 100 (0 no effect, 100 complete control), read-out: Plant response rating, Oat, Wild): 0% | pest or weed control at 62 g/ha (wild oat (Avena fatua); Avena fatua, pre-emergence, Preemergence, 62 g ai/ha, scale 0 to 100 (0 no effect, 100 complete control), read-out: Plant response rating, Oat, Wild): 5% | pest or weed control at 125 g/ha (wild oat (Avena fatua); Avena fatua, pre-emergence, Preemergence, scale 0 to 100, 0 no effect, 100 complete control, read-out: Plant response rating, Oat, Wild): 20% | Oat, Wild plant response rating (wild oat (Avena fatua); [9]): 40 | Bermudagrass plant response rating (0 to 100 scale) [3, 8]: 90 | pest or weed control at 31 g/ha ([3]; Cynodon dactylon, post-emergence, postemergence, scale 0 to 100, 0 is no effect, 100 is complete control, read-out: Plant response rating, Bermudagrass): 80% | pest or weed control at 125 g/ha ([3]; Cynodon dactylon, post-emergence, Postemergence, scale 0 to 100 (0 no effect, 100 complete control), read-out: Plant response rating, Bermudagrass): 95% | pest or weed control at 250 g/ha ([3]; Cynodon dactylon, post-emergence, Postemergence, 250 g ai/ha, scale 0 to 100 (0 no effect, 100 complete control), read-out: Plant response rating, Bermudagrass): 95% | pest or weed control at 31 g/ha ([3]; Cynodon dactylon, pre-emergence, Preemergence, scale 0 to 100 (0 no effect, 100 complete control), read-out: Plant response rating, Bermudagrass): 95% | pest or weed control at 62 g/ha ([3]; Cynodon dactylon, pre-emergence, Preemergence, 62 g ai/ha, scale 0 to 100, 0 no effect, 100 complete control, read-out: Plant response rating, Bermudagrass): 95% | pest or weed control at 125 g/ha ([3]; Cynodon dactylon, pre-emergence, Preemergence, scale 0 to 100, 0 no effect, 100 complete control, read-out: Plant response rating, Bermudagrass): 100% | Bermudagrass plant response rating ([3]; Preemergence, 250 g ai/ha, 0 to 100 scale, 0 no effect, 100 complete control): 100 | Surinam Grass plant response rating (0 to 100 scale) [4, 8]: 85 | Surinam Grass plant response rating [4, 9]: 98 | pest or weed control at 125 g/ha ([4]; Urochloa decumbens, post-emergence, Postemergence, scale 0 to 100 (0 no effect, 100 complete control), read-out: Plant response rating, Surinam Grass): 90% | pest or weed control at 250 g/ha ([4]; Urochloa decumbens, post-emergence, Postemergence, 250 g ai/ha, scale 0 to 100 (0 no effect, 100 complete control), read-out: Plant response rating, Surinam Grass): 90% | pest or weed control at 31 g/ha ([4]; Urochloa decumbens, pre-emergence, Preemergence, 31 g ai/ha, scale 0 to 100 (0 no effect, 100 complete control), read-out: Plant response rating, Surinam Grass): 0% | pest or weed control at 62 g/ha ([4]; Urochloa decumbens, pre-emergence, Preemergence, 62 g ai/ha, scale 0 to 100 (0 no effect, 100 complete control), read-out: Plant response rating, Surinam Grass): 80% | pest or weed control at 125 g/ha ([4]; Urochloa decumbens, pre-emergence, Preemergence, scale 0 to 100, 0 no effect, 100 complete control, read-out: Plant response rating, Surinam Grass): 95% | Lambsquarters plant response rating (0 to 100 scale) [5, 8]: 98 | pest or weed control at 31 g/ha ([5]; Chenopodium album, post-emergence, postemergence, scale 0 to 100, 0 is no effect, 100 is complete control, read-out: Plant response rating, Lambsquarters): 95% | pest or weed control at 125 g/ha ([5]; Chenopodium album, post-emergence, Postemergence, scale 0 to 100 (0 no effect, 100 complete control), read-out: Plant response rating, Lambsquarters): 98% | pest or weed control at 250 g/ha ([5]; Chenopodium album, post-emergence, Postemergence, 250 g ai/ha, scale 0 to 100 (0 no effect, 100 complete control), read-out: Plant response rating, Lambsquarters): 98% | pest or weed control at 31 g/ha ([5]; Chenopodium album, pre-emergence, Preemergence, scale 0 to 100 (0 no effect, 100 complete control), read-out: Plant response rating, Lambsquarters): 98% | pest or weed control at 62 g/ha ([5]; Chenopodium album, pre-emergence, Preemergence, 62 g ai/ha, scale 0 to 100, 0 no effect, 100 complete control, read-out: Plant response rating, Lambsquarters): 100% | pest or weed control at 125 g/ha ([5]; Chenopodium album, pre-emergence, Preemergence, scale 0 to 100, 0 no effect, 100 complete control, read-out: Plant response rating, Lambsquarters): 100% | Lambsquarters plant response rating [5, 9]: 100 | Pigweed plant response rating (0 to 100 scale) [6, 8]: 100 | pest or weed control at 31 g/ha ([6]; Amaranthus retroflexus, post-emergence, postemergence, scale 0 to 100, 0 is no effect, 100 is complete control, read-out: Plant response rating, Pigweed): 95% | pest or weed control at 125 g/ha ([6]; Amaranthus retroflexus, post-emergence, Postemergence, scale 0 to 100 (0 no effect, 100 complete control), read-out: Plant response rating, Pigweed): 100% | pest or weed control at 250 g/ha ([6]; Amaranthus retroflexus, post-emergence, Postemergence, 250 g ai/ha, scale 0 to 100 (0 no effect, 100 complete control), read-out: Plant response rating, Pigweed): 100% | pest or weed control at 31 g/ha ([6]; Amaranthus retroflexus, pre-emergence, Preemergence, scale 0 to 100 (0 no effect, 100 complete control), read-out: Plant response rating, Pigweed): 98% | pest or weed control at 62 g/ha ([6]; Amaranthus retroflexus, pre-emergence, Preemergence, 62 g ai/ha, scale 0 to 100 (0 no effect, 100 complete control), read-out: Plant response rating, Pigweed): 98% | pest or weed control at 125 g/ha ([6]; Amaranthus retroflexus, pre-emergence, Preemergence, scale 0 to 100, 0 no effect, 100 complete control, read-out: Plant response rating, Pigweed): 100% | Pigweed plant response rating [6, 9]: 100 | Ragweed plant response rating (0 to 100 scale) [7, 8]: 95 | pest or weed control at 125 g/ha ([7]; Ambrosia artemisiifolia, post-emergence, 360 h, Postemergence, scale 0 to 100 (0 no effect, 100 complete control), read-out: Plant response rating, Ragweed): 98% | pest or weed control at 250 g/ha ([7]; Ambrosia artemisiifolia, post-emergence, 360 h, Postemergence, 250 g ai/ha, scale 0 to 100 (0 no effect, 100 complete control), read-out: Plant response rating, Ragweed): 98% | pest or weed control at 31 g/ha ([7]; Ambrosia artemisiifolia, pre-emergence, 360 h, Preemergence, 31 g ai/ha, scale 0 to 100 (0 no effect, 100 complete control), read-out: Plant response rating, Ragweed): 55% | pest or weed control at 62 g/ha ([7]; Ambrosia artemisiifolia, pre-emergence, 360 h, Preemergence, 62 g ai/ha, scale 0 to 100 (0 no effect, 100 complete control), read-out: Plant response rating, Ragweed): 90% | pest or weed control at 125 g/ha ([7]; Ambrosia artemisiifolia, pre-emergence, 360 h, Preemergence, scale 0 to 100, 0 no effect, 100 complete control, read-out: Plant response rating, Ragweed): 95% | Ragweed plant response rating [7, 9]: 98 | Soybean plant response rating (0 to 100 scale) (soybean (Glycine max); [8]): 98 | plant injury at 125 g/ha (soybean (Glycine max); Glycine max, post-emergence, Postemergence, scale 0 to 100 (0 no effect, 100 complete control), read-out: Plant response rating, Soybean): 98% | plant injury at 250 g/ha (soybean (Glycine max); Glycine max, post-emergence, Postemergence, 250 g ai/ha, scale 0 to 100 (0 no effect, 100 complete control), read-out: Plant response rating, Soybean): 98% | plant injury at 31 g/ha (soybean (Glycine max); Glycine max, pre-emergence, Preemergence, 31 g ai/ha, scale 0 to 100 (0 no effect, 100 complete control), read-out: Plant response rating, Soybean): 0% | plant injury at 62 g/ha (soybean (Glycine max); Glycine max, pre-emergence, Preemergence, 62 g ai/ha, scale 0 to 100, 0 no effect, 100 complete control, read-out: Plant response rating, Soybean): 65% | plant injury at 125 g/ha (soybean (Glycine max); Glycine max, pre-emergence, Preemergence, scale 0 to 100, 0 no effect, 100 complete control, read-out: Plant response rating, Soybean): 85% | Soybean plant response rating (soybean (Glycine max); [9]): 90

Source: patent US8952024B2, “Herbicidal pyrimidone derivatives” (E I du Pont de Nemours and Company, priority 2009, dated 2015)
